Measurements reported in US10336766B2, “Anticancer drug candidates” (THE SCRIPPS RESEARCH INSTITUTE, priority 2015, dated 2019).
Like-named read-outs stand apart in the source and are kept apart here.

How the values were obtained:
Assay type in all cases: cell-based, human
[1] = test system: central nervous system cell line SF-539; assay: In vitro cytotoxic activity, CELLTITER 96 AQueous One Solution (MTS) assay, SF-539; conditions: 72 h treatment, mean ± SD of 3 replicates, read-out: IC50 cytotoxicity, SF-539
Protocol: (§1) The in vitro cytotoxic activity (IC50, half maximal inhibitory concentration) of the tiancimycins was tested against selected human cancer cell lines, such as breast cancer cells MDA-MB-468, melanoma cell M14 and SK-MEL-5, non-small cell lung cancer cell NCI-H226, central nervous system cell lines SF-295 and SF-539, and the known enediyne UCM was used as a comparison. Suspended cultures of cells were diluted to a concentration of 5×10^4 cells mL^−1 in RPMI 1640 medium supplemented with 10% fetal bovine serum, 100 μgmL^−1 streptomycin, and 100 UmL^−1 penicillin. The suspended cultures were dispensed into 96-well microtiter plates (100 μL per well) and the plates were incubated for 24 hours at 37° C. in an atmosphere of 5% CO2, 95% air, and 100% humidity. After incubation, original medium was removed and 100 μL of fresh medium was added, followed by adding serial dilutions of the tiancimycins (A, B, and C, 1 μl) and UCM (1 μl) in DMSO. The concentration of the tested compounds was ranged from 0 to 100 nM. Plates were incubated under the above conditions for 72 hours. After incubation, 20 μl CELLTITER 96® AQueous One Solution Reagent (Promega Corp, Madison, Wis., USA) was added to the plates and incubated at 37° C. in a humidified, 5% CO2 atmosphere for 30 to 60 min. The absorbance at 490 nm was recorded using an ELISA plate reader. Each point represents the mean±SD of 3 replicates. The IC50 was determined by computerized curve fitting.
(§2) Antitumor activities were assessed using CELLTITER 96® Aqueous One Solution Proliferation Assay (MTS) (Promega Corp.). Cells were plated in 96-well plate at 5000 cells/well and allowed to adhere overnight at 37° C. in a humidified atmosphere of 5% CO2. Medium was then removed and replaced by fresh culture medium containing different concentrations of different drugs. The cells were treated for 72 h before the assay was developed. All assay values were measured in triplicate.

[2] = test system: central nervous system cell line SF-295; assay: In vitro cytotoxic activity, CELLTITER 96 AQueous One Solution (MTS) assay, SF-295; conditions: 72 h treatment, mean ± SD of 3 replicates, read-out: IC50 cytotoxicity, SF-295
Protocol: as §1, §2

[3] = test system: melanoma cell SK-MEL-5; assay: In vitro cytotoxic activity, CELLTITER 96 AQueous One Solution (MTS) assay, SK-MEL-5; conditions: 72 h treatment, mean ± SD of 3 replicates, read-out: IC50 cytotoxicity, SK-MEL-5
Protocol: as §1, §2

[4] = test system: non-small cell lung cancer cell NCI-H226; assay: In vitro cytotoxic activity, CELLTITER 96 AQueous One Solution (MTS) assay, NCI-H226; conditions: 72 h treatment, mean ± SD of 3 replicates, read-out: IC50 cytotoxicity, NCI-H226
Protocol: as §1, §2

[5] = test system: breast cancer cells MDA-MB-468; assay: In vitro cytotoxic activity, CELLTITER 96 AQueous One Solution (MTS) assay, MDA-MB-468; conditions: 72 h treatment, mean ± SD of 3 replicates, read-out: IC50 cytotoxicity, MDA-MB-468
Protocol: as §1, §2

[6] = test system: melanoma cell M14; assay: In vitro cytotoxic activity, CELLTITER 96 AQueous One Solution (MTS) assay, M14; conditions: 72 h treatment, mean ± SD of 3 replicates, read-out: IC50 cytotoxicity, M14
Protocol: as §1, §2

Compound | IC50 ([1]; Homo sapiens) [nM] | IC50 ([2]; Homo sapiens) [nM] | IC50 ([3]; Homo sapiens) [nM] | IC50 ([4]; Homo sapiens) [nM] | IC50 ([5]; Homo sapiens) [nM] | IC50 ([6]; Homo sapiens) [nM] | IC50 [1] [nM] | IC50 [2] [nM] | IC50 [3] [nM] | IC50 [4] [nM] | IC50 [5] [nM] | IC50 [6] [nM]
COc1ccc2c(c1O)C(=O)c1c3c(cc(O)c1C2=O)C12O[C@@]1([C@@H](C)O)[C@H](C#C/C=C\C#C[C@H]2O)N3 [TNM A, tiancimycin A] | 0.3 ± 0.08 | 0.14 ± 0.01 | 0.19 ± 0.01 | 2.3 ± 0.1 | 0.1 ± 0.01 | 0.14 ± 0.01 | – | – | – | – | – | –
COC(=O)/C=C(\C)[C@@]12OC13c1cc(O)c4c(c1N[C@H]2C#C/C=C\C#C[C@H]3O)C(=O)c1ccccc1C4=O [TNM B, tiancimycin B] | 0.23 ± 0.05 | 0.26 ± 0.02 | 0.19 ± 0.04 | 2.8 ± 0.1 | 0.1 ± 0.01 | 0.24 ± 0.01 | – | – | – | – | – | –
COC(=O)C(O)C(C)(O)[C@@]12OC13c1cc(O)c4c(c1N[C@H]2C#C/C=C\C#C[C@H]3O)C(=O)c1c(ccc(O)c1O)C4=O (stereo partly drawn) [TNM C, tiancimycin C] | 0.3 ± 0.05 | 0.28 ± 0.02 | 0.14 ± 0.02 | 3.3 ± 0.3 | 0.07 ± 0.01 | 0.25 ± 0.01 | – | – | – | – | – | –
CC(O)[C@@]12O[C@]13c1cc(O)c4c(c1N[C@H]2C#C/C=C\C#C[C@H]3O)C(=O)c1ccccc1C4=O (stereo partly drawn) [UCM, uncialamycin, reference compound] | – | – | – | – | – | – | 0.67 ± 0.03 | 0.51 ± 0.05 | 1.7 ± 0.1 | 4.1 ± 0.2 | 0.22 ± 0.03 | 0.47 ± 0.07
